The source of these data is patent US20190275003A1, “ENCAPSULATION OF PHOSPHODIESTERASE INHIBITORS TO TREAT ALCOHOLIC LIVER DISEASE” (University of Louisville Research Foundation, Inc., priority 2016, published 2019).

Data set [1] deals with alcoholic hepatitis. Conditions: human clinical studies; cited from earlier work.
The test system of data set [2] is liver injury and fibrosis. To be noted: several animal models; cited from earlier work.
The test system of data set [3] is mouse aortic endothelial cells (MAECs). As to the kind of experiment: Fusion rate of rolipram-loaded vesicles to MAECs. It is filed as cell-based. The text has this: FIGS. 8A-B show the fusion rate of FLVs-Rolipram to RAW cells and mouse aortic endothelial cells (MAECs) in the presence or absence of excipients in the vehicle. Using fluorescent-labeled FLVs and a Nanoparticle Tracking Analysis instrument to quantify FLV numbers, the fusion rate of vesicles to RAW cells was quantified over time. (A) Lipid vesicles formulated with DOPC/POPA (3:2) loaded with rolipram (DOPC:POPA-R) fused to RAW cells at a faster rate than DOPC vesicles loaded with rolipram (DOPC). […] FLVs=fusogenic lipid vesicles, SOA=Sucrose octaacetate, SAIB=acetate isobutyrate.
Studies quantifying the fusion rate of vesicles loaded with rolipram to RAW or mouse aortic endothelial cells (MAECs) were performed. In the first experiment, the fusion rate of lipid vesicles to RAW cells using a highly fusogenic vesicle formulated with DOPC/POPA was compared to less fusogenic vesicle formulated with DOPC (FIG. 8A). […] In the second experiment, the fusion rate of FLVs to MAECs using the excipients sucrose octaacetate (SOA) or SAIB and the same vesicle lipid formulations as in the experiment above were performed. […] Also, SOA an excipient used to enhance the stability of FLVs-rolipram during storage appears to augment the fusion rate of FLVs.

Data set [4] in a line: Encapsulation efficiency of rolipram in FLVs. The class given is physicochemical. Conditions: FLVs 10 mg/mL lipid, rolipram 0.75 mg/mL, diluted 5 or 10 times. How it is done: FIGS. 5A-C show the encapsulation efficiency percent of rolipram when 10 (A), 12.5 (B) and 15 mg/mL of FLV lipid (C) was hydrated with buffer containing 0.75 mg/mL of rolipram and diluted in water five or 10 times. The percentage of free rolipram in buffer was calculated by measuring the amount of free drug in buffer after FLVs in solution were filtered out. More than 50% of drug remained encapsulated with either of the dilutions over time. The amount of rolipram associated with FLVs appeared to fluctuate over time but it stabilized at the end of […]. FLVs=fusogenic vesicles.
After dilution the rolipram EE % of FLVs was similar when either excipient or no excipient was utilized. FLVs=fusogenic lipid vesicles, SOA=Sucrose octaacetate, SAIB=acetate isobutyrate.
To evaluate the ability of the FLVs to retain rolipram in an aqueous system, 0.75 mg/mL of rolipram was loaded into the lipid bilayer and internal liquid compartment of FLVs using four concentrations of lipid: 5, 10, 12.5, and 15 mg/ml. The rolipram encapsulation efficiency was quantified.
To evaluate the effect of dilution on encapsulation efficiency of FLVs-rolipram, different concentrations of FLV lipid (10, 12.5 and 15 mg/ML) were hydrated with the same amount of rolipram (0.75 mg/mL) and then diluted in water 5 and 10 times. Rolipram levels in the external buffer compartment were measured over a 90 min period. […]

Data set [5] has as its system TNF. As to the kind of experiment: LPS mediated TNF expression in ethanol treated cells. It is filed as cell-based. Conditions: data not shown. The text has this: Studies in monocytes have shown that cAMP plays an important role in regulating TNF expression, and that the elevation of cellular cAMP suppresses TNF production. Therefore, the instant inventors evaluated (1) the effects of chronic ethanol exposure on the cellular levels of cAMP, and (2) TNF expression in monocytes in vitro and in rat primary hepatic Kupffer cells obtained from a clinically relevant enteral alcohol feeding model of alcoholic liver disease (ALD). […] Consistent with these decreased cAMP levels, ethanol led to an increase in LPS-inducible TNF mRNA expression (FIG. 2) and TNF protein, without any change in the TNF mRNA stability (data not shown). Enhancement of cellular cAMP with dbcAMP abrogated LPS mediated TNF expression in ethanol treated cells (data not shown).

Data set [6] concerns cholestatic liver injury and fibrosis. Conditions: rat, in vivo; cited from earlier work.
The test system of data set [7] is TNF. As to the kind of experiment: LPS-stimulated TNF expression in human PBMCs pre-treated with rolipram. It is filed as cell-based. How it is done: PBMCs isolated from a healthy individual were pre-treated with rolipram (1, 5, and 10 μM) for 30 minutes and further stimulated with LPS (1 μg/ml) for 6 hours. Cell-free supernatants were analyzed for TNF expression by ELISA. Rol=rolipram. TNF=tumor necrosis factor-alpha, FLVs=fusogenic lipid vesicles.
The effect of chronic ethanol exposure on PDE4 gene expression and activity in human THP-1 and mouse RAW macrophages was evaluated next, as a mechanism for the decreased intracellular cAMP levels and the increased LPS-stimulated TNF.^4 PDE4 (predominantly present in monocytes) degrades and inactivates cAMP, with PDE4B playing a critical role in LPS signaling. It was shown that chronic alcohol increased LPS-inducible PDE4B mRNA expression (FIG. 2).

In data set [8] the test system is α2-adrenoceptor-mediated xylazine/ketamine-induced anesthesia. As to the kind of experiment: Duration of xylazine/ketamine anesthesia (behavioral correlate of emesis). It is filed as in vivo, male C57BL/6 mice. To be noted: free rolipram IV, mean of the 3 groups (1.6, 3.3 and 6.6 mg/kg bw); paired control 75.1±4.7 min. As for the experimental part: FLVs-Rol=Fusogenic lipid vesicles-rolipram.
Safety pharmacology studies were conducted to determine the dose-response relationship of adverse effects observed by rolipram. The primary side effect of rolipram is the inhibition of PDE4 activity in the CNS, which leads to emesis in humans. The mechanism of the emetic response associated with PDE4 inhibitors is thought to produce a pharmacological response analogous to that of presynaptic α2-adrenoceptor inhibition, by elevating intracellular levels of cAMP in noradrenergic neurons. Consequently, PDE4 inhibitors remove an inhibitory mechanism that modulates the release of mediators (5-HT, substance P, noradrenaline) involved in the onset of the emetic reflex. […]
Since rodents are a non-vomiting species, examining rolipram-induced side effects in rodents is particularly difficult.^34-36 To circumvent this problem, a behavioral correlate of emesis model in mice was utilized.^35 In this model, rolipram is used to reverse the duration of α2-adrenoceptor-mediated xylazine/ketamine-induced anesthesia, which is temporally quantified by the return of the righting reflex. […] After 15 min, the mice were placed on a controlled heating pad in the dorsal recumbent position and the duration of anesthesia was determined by timing the return of the righting reflex. […]

Data set [9] concerns TNF production in RAW 264.7 cells. Briefly: RAW cell assay: LPS-induced TNF production (ELISA). It is filed as cell-based, mouse. To be noted: LPS 100 ng/mL 18 h, SAIB 0.5 mg/mL, FLVs 10 mg/mL lipid. How it is done: Cells were treated with SAIB (0.5 mg/mL), FLVs (10 mg/mL of lipid) with SAIB (FLV-SAIB) or FLVs-rolipram 0.75 mg/mL (FLV-Rol) without SAIB and stimulated with LPS (100 ng/mL) for 18 h. The effect of SAIB was evaluated by quantifying TNF production using an ELISA kit. SAIB alone appears to exert a beneficial effect, and FLVs with SAIB have a greater beneficial effect. FLVs=fusogenic lipid vesicles, LPS=endotoxin, SAIB=acetate isobutyrate.
Cells were treated with 0.73 mg/mL rolipram (Rol), FLVs only, or 0.73 mg/mL of FLVs-rolipram (FLVs-Rol) and stimulated with LPS (100 ng/mL) for 24 h. Control cells received treatment but no LPS. TNF in media was measured using an ELISA kit. UT=untreated cells, FLVs=fusogenic vesicles, LPS=endotoxin.
The effect of adding SAIB (0.5 mg/mL) to the vehicle was tested in vitro using RAW cells pulsed with LPS (100 ng/mL) and evaluated for TNF production. Rolipram (0.75 mg/mL) encapsulated in of 10 mg/mL of lipid without SAIB was used as a control.
An in vitro screening assay to evaluate the effectiveness of the FLVs-rolipram formulations was developed. The assay uses a murine macrophage cell line (RAW 264.7 cells), which produces high levels of TNF in response to LPS stimulation. […] After 24 h, TNF protein was measured in cell free supernatant by ELISA kit (FIG. 14).
(In general: In an ELISA, binding on a coated surface is turned into a signal by an enzyme label.)

With `CC(=O)CCCCn1c(=O)c2c(ncn2C)n(C)c1=O` [Pentoxifylline], the “mortality in patients with AH” value in data set [1] was “decreased mortality”. Also, in [2], the “liver injury and fibrosis” value is “attenuate liver injury and fibrosis”.

In the case of `CC(=O)OC[C@H]1O[C@@](COC(C)=O)(O[C@H]2O[C@H](COC(C)=O)[C@@H](OC(C)=O)[C@H](OC(C)=O)[C@H]2OC(C)=O)[C@@H](OC(C)=O)[C@@H]1OC(C)=O` [SOA, sucrose octaacetate], in data set [3], the “effect of excipient on fusion rate of DOPC/POPA FLVs-rolipram to MAECs” value is reported as “enhanced the fusion rate”. Moreover, in [4], the “effect of excipient on rolipram encapsulation efficiency” value was “did not significantly alter”.

With `CCCC(=O)Nc1ncnc2c1ncn2[C@@H]1O[C@@H]2COP(=O)(O)O[C@H]2[C@H]1OC(=O)CCC` [dbcAMP], the “LPS mediated TNF expression” value in data set [5] was “abrogated”.

On to `COc1ccc(C2CNC(=O)C2)cc1OC1CCCC1` (stereo not drawn) [rolipram, 4-(3-Cyclopentyloxy-4-methoxy-phenyl) pyrrolidin-2-one], for which, in data set [6], the “protection against cholestatic liver injury and fibrosis” value was “significant protection”. Besides, the “TNF mRNA” value in [7] (human PBMCs stimulated with LPS, data not shown) was “significantly downregulated”. Besides, the TNF protein result in data set [7] (human PBMCs, rolipram 1, 5, 10 μM 30 min, LPS 1 μg/ml 6 h, ELISA, dose-dependent) is “significantly downregulated”. Further, in [8], the mean anesthesia time turned out to be 48.6 ± 5.5 min.

sucrose acetate isobutyrate [SAIB]: the “effect of excipient on fusion rate of DOPC/POPA FLVs-rolipram to MAECs” value in data set [3] was “appeared to decrease the fusion rate”. Further, in data set [4], the “effect of excipient on rolipram encapsulation efficiency” value is “did not significantly alter”. For the same compound, in data set [9], the TNF production entry is “reduced the effect of LPS”.
